Reference: US20120122727A1, “IN VITRO METHOD FOR PREDICTING WHETHER A COMPOUND IS GENOTOXIC IN VIVO” (priority 2009, published 2012)

What was measured:
[1] = test system: primary mouse hepatocytes
[2] = in vivo; cited from earlier work
[3] = test system: primary mouse hepatocytes; assay: Gene expression (Affymetrix Mouse Genome 430 2.0) in primary mouse hepatocytes, true vs false GTX, 24 h and 48 h

Oc1cccc2cccnc12 [8Q, 8-Hydroxyquinoline]
Gene expression data AF204959 (Cyp3a25 /// LOC622249) [1]: −0.4178 | GTX in vivo [2]: − | Gene expression AA561726 average [3]: 0.1739 | Gene expression AF000969 average [3]: −0.1809 | Gene expression AF022072 average [3]: 0.0814 | Gene expression AF033112 average [3]: −0.01703 | Gene expression AF055573 average [3]: −0.09457 | Gene expression AF069954 average [3]: 0.1841 | Gene expression AF297615 average [3]: −0.009333 | Gene expression AF335325 average [3]: 0.1418 | Gene expression AI594683 average [3]: 0.1235 | Gene expression AI747296 average [3]: −0.0009667 | Gene expression AK005731 average [3]: −0.03997 | Gene expression AK007854 average [3]: 0.05973 | Gene expression AK010447 average [3]: 0.06223 | Gene expression AK010738 average [3]: 0.3608 | Gene expression AK014608 average [3]: −0.2447 | Gene expression AK017734 average [3]: 0.0878 | Gene expression AK018383 average [3]: 0.0679 | Gene expression AK019979 average [3]: −0.2154 | Gene expression AV095209 average [3]: 0.2602 | Gene expression AV141095 average [3]: −0.1725 | Gene expression AV173869 average [3]: −0.02557 | Gene expression AV216768 average [3]: 0.1679 | Gene expression AV219418 average [3]: 0.4492 | Gene expression AV221299 average [3]: 0.1454 | Gene expression AV246296 average [3]: −0.1136 | Gene expression AV251625 average [3]: 0.03813 | Gene expression AV254764 average [3]: 0.02403 | Gene expression AV327248 average [3]: 0.1176 | Gene expression BB009155 average [3]: 0.006467 | Gene expression BB027848 average [3]: −0.06607 | Gene expression BB043558 average [3]: −0.2347 | Gene expression BB046347 average [3]: 0.1608 | Gene expression BB140436 average [3]: 0.2861 | Gene expression BB204486 average [3]: 0.1305 | Gene expression BB223872 average [3]: 0.05753 | Gene expression BB246912 average [3]: 0.3325 | Gene expression BB275142 average [3]: 0.0112 | Gene expression BB458460 average [3]: 0.1317 | Gene expression BB463610 average [3]: −0.2369 | Gene expression BB730977 average [3]: 0.3298 | Gene expression BB743970 average [3]: 0.1936 | Gene expression BB770528 average [3]: −0.01823 | Gene expression BB781615 average [3]: −0.006367 | Gene expression BC003284 average [3]: 0.09 | Gene expression BC004827 average [3]: −0.07043 | Gene expression BC005552 average [3]: 0.1343 | Gene expression BC006713 average [3]: −0.1035 | Gene expression BC010318 average [3]: 0.0565 | Gene expression BC012247 average [3]: −0.006933 | Gene expression BC012955 average [3]: −0.3049 | Gene expression BC013893 average [3]: −0.1654 | Gene expression BC017615 average [3]: −0.4904 | Gene expression BC019379 average [3]: −0.1555 | Gene expression BC019882 average [3]: −0.1719 | Gene expression BC021352 average [3]: 0.4721 | Gene expression BC022148 average [3]: 0.04497 | Gene expression BC025169 average [3]: 0.02213 | Gene expression BC026131 average [3]: −0.0852 | Gene expression BC027026 average [3]: 0.2479 | Gene expression BC027121 average [3]: −0.1207 | Gene expression BC027185 average [3]: −0.1209 | Gene expression BE956581 average [3]: 0.403 | Gene expression BF719766 average [3]: −0.2717 | Gene expression BG065754 average [3]: −0.0909 | Gene expression BG066491 average [3]: −0.1771 | Gene expression BG076151 average [3]: −0.1887 | Gene expression BG076333 average [3]: −0.05333 | Gene expression BG797099 average [3]: 0.0658 | Gene expression BG967046 average [3]: −0.09257 | Gene expression BI651416 average [3]: 0.06777 | Gene expression BI966443 average [3]: 0.1335 | Gene expression BM198879 average [3]: −0.05617 | Gene expression BM200015 average [3]: 0.08087 | Gene expression BM230508 average [3]: 0.07603 | Gene expression BM936480 average [3]: 0.0483 | Gene expression BQ174991 average [3]: −0.1546 | Gene expression L21027 average [3]: 0.2905 | Gene expression NM_007556 average [3]: 0.0638 | Gene expression NM_007980 average [3]: −0.5064 | Gene expression NM_007987 average [3]: 0.03487 | Gene expression NM_008522 average [3]: 0.0486 | Gene expression NM_008935 average [3]: 0.4082 | Gene expression NM_009897 average [3]: 0.111 | Gene expression NM_011075 average [3]: 0.1618 | Gene expression NM_011176 average [3]: 0.1358 | Gene expression NM_011316 average [3]: 0.06377 | Gene expression NM_012006 average [3]: 0.5806 | Gene expression NM_013642 average [3]: 0.2659 | Gene expression NM_013738 average [3]: −0.305 | Gene expression NM_013929 average [3]: 0.033 | Gene expression NM_018881 average [3]: −0.1679 | Gene expression NM_019738 average [3]: −0.9543 | Gene expression NM_030697 average [3]: −0.0261 | Gene expression NM_053122 average [3]: −0.142 | Gene expression NM_134147 average [3]: −0.1757 | Gene expression NM_134188 average [3]: −0.07067 | Gene expression X62701 average [3]: 0.154 | Gene expression data AF000969 (Cadps2) [3]: −0.3717 | Gene expression data AF022072 (Grb10) [3]: −0.4275 | Gene expression data AF065917 (Lif) [3]: −0.2101 | Gene expression data AF297615 (Ggta1) [3]: −0.0684 | Gene expression data AI594683 (Dmn) [3]: −0.09783 | Gene expression data AI596632 (Ptprg /// LOC632664) [3]: −0.227 | Gene expression data AI987929 (Ndrg1) [3]: 0.4414 | Gene expression data AK004419 (Fbxl17) [3]: 0.01113 | Gene expression data AK005731 (1700007K13Rik) [3]: 0.1143 | Gene expression data AK007766 (1810044A24Rik) [3]: −0.0226 | Gene expression data AK007854 (1810053B23Rik) [3]: −0.076 | Gene expression data AK009736 (Gpr137b /// LOC664862 /// LOC673335) [3]: 0.5337 | Gene expression data AK010447 (Smyd3) [3]: 0.07697 | Gene expression data AK014608 (4632434l11Rik) [3]: −0.1225 | Gene expression data AK019979 (2610528E23Rik) [3]: 0.08447 | Gene expression data AV095209 (Mthfd1l) [3]: 0.1564 | Gene expression data AV141095 (1110033M05Rik) [3]: −0.07047 | Gene expression data AV173571 (1700106N22Rik) [3]: 0.04197 | Gene expression data AV219418 (Ldhb) [3]: 0.0363 | Gene expression data AV223474 (Zdhhc14) [3]: −0.06957 | Gene expression data AV298304 (Homez) [3]: −0.03607 | Gene expression data AV327248 (Zfp365 /// LOC674611) [3]: −0.082 | Gene expression data AV377066 (9130221J18Rik) [3]: −0.3212 | Gene expression data AW240761 (Tbc1d5) [3]: −0.2006 | Gene expression data AW543460 (Pard3) [3]: −0.0366 | Gene expression data AW543723 [3]: −0.0994 | Gene expression data AW986246 (Maoa) [3]: 0.3198 | Gene expression data BB027848 (4732466D17Rik) [3]: −0.2807 | Gene expression data BB043558 (9230114K14Rik) [3]: −0.3734 | Gene expression data BB275142 (AW456874) [3]: −0.02507 | Gene expression data BB308836 (Ppm1l) [3]: 0.2558 | Gene expression data BB318221 (Zdhhc14) [3]: 0.1138 | Gene expression data BB463610 (4632434l11Rik) [3]: −0.2188 | Gene expression data BB526605 (Mipol1) [3]: −0.01453 | Gene expression data BB770528 (Rai2) [3]: 0.1386 | Gene expression data BB821363 (Scfd2) [3]: 0.1765 | Gene expression data BC004827 (Psat1) [3]: −0.1011 | Gene expression data BC008626 (Icam1) [3]: −0.4422 | Gene expression data BC010462 (BC010462) [3]: 0.05663 | Gene expression data BC012247 (Dcxr) [3]: −0.0122 | Gene expression data BC012260 (Psmf1) [3]: 0.2545 | Gene expression data BC015270 (Hist2h3c2) [3]: −0.03353 | Gene expression data BC016073 (Cdkal1) [3]: −0.05183 | Gene expression data BC016265 (Ube2e2) [3]: −0.2547 | Gene expression data BC019882 (Acaa1b) [3]: 0.0605 | Gene expression data BC025501 (Aaas) [3]: 0.1979 | Gene expression data BC025837 (Sbk1) [3]: −0.04227 | Gene expression data BC025915 (Cova1) [3]: −0.02643 | Gene expression data BC026422 (Tgm1) [3]: 0.2873 | Gene expression data BF719766 (Thyn1) [3]: −0.1935 | Gene expression data BG065754 (Ccng1) [3]: −0.2279 | Gene expression data BG066903 (Kif16b) [3]: −0.1277 | Gene expression data BG069873 (Gnb1l) [3]: −0.04763 | Gene expression data BG070887 (Gtdc1) [3]: −0.04273 | Gene expression data BG076151 (Ppm1d) [3]: 0.07243 | Gene expression data BG261907 (Large) [3]: −0.1486 | Gene expression data BI651416 (Cdc42bpg) [3]: 0.1364 | Gene expression data BI660702 (Ell3) [3]: 0.05113 | Gene expression data BM198879 (Ercc5) [3]: −0.006767 | Gene expression data BM230508 (A030007D23Rik) [3]: 0.03497 | Gene expression data NM_007987 (Fas) [3]: −0.05523 | Gene expression data NM_008522 (Ltf) [3]: −0.05963 | Gene expression data NM_008576 (Abcc1) [3]: 0.106 | Gene expression data NM_011176 (St14) [3]: 0.05783 | Gene expression data NM_011316 (Saa4) [3]: 0.0831 | Gene expression data NM_012006 (Acot1) [3]: −0.2532 | Gene expression data NM_013866 (Zfp385) [3]: 0.05893 | Gene expression data NM_018770 (Igsf4a) [3]: 0.1391 | Gene expression data NM_021451 (Pmaip1) [3]: −0.5295 | Gene expression data NM_025770 (Atg10) [3]: −0.1372 | Gene expression data NM_028803 (Gbe1) [3]: −0.04593 | Gene expression data NM_030697 (Ankrd47) [3]: 0.2204 | Gene expression data NM_053168 (Trim11) [3]: −0.0493 | Gene expression data NM_134188 (Acot2) [3]: −0.2881 | Gene expression data Y15910 (Diap2) [3]: −0.2692
